Test results from patent publication EP4570800A1, “CRYSTAL FORM OF PYRIDINOPYRIMIDINONE COMPOUND, ACID SALT THEREOF, CRYSTAL FORM OF ACID SALT THEREOF, AND USE” (Wuhan Humanwell Innovative Drug Research and Development …, priority 2022, dated 2024).
Where two headings read alike, the source gives them in different places.

Legend:
[1] = system: ERK phosphorylation level in DLD-1 cells; experiment: Inhibition of ERK phosphorylation level in DLD-1 cells (intracellular western blot); type: cell-based; details: Homo sapiens
Procedure: Intracellular western blot quantitative analysis was used to detect the inhibitory level of compounds on ERK phosphorylation in DLD-1 cells.
DLD-1 cells (ATCC, CCL-221) were seeded in a T75 culture flask at 2.5 × 10^6 cells/flask, and cultured in a RPMI 1640 medium containing 10% FBS for 2 days. On day 3, the cells were seeded on a 384-well plate, and cultured overnight at 37°C, 5% CO2. After overnight culture, the plate was added with serially diluted compounds (the final content of DMSO was 0.5%), the negative group was added with DMSO, and incubated in a 37°C, 5% CO2 incubator.
The cells were fixed, washed once with PBS, treated to disrupt membranes, and blocked at room temperature for 1 h. The blocking solution was removed. The plate was added with primary antibody (CST, Cat. No. #4370S), and incubated overnight at 4°C. The plate was washed 3 times with PBST (PBS solution added with 0.05% Tween-20), and soaked for 2 min each time. The plate was added with secondary antibody (LI-COR, Cat. No. 926-32211), and incubated at room temperature in the dark. The plate was washed 3 times with PBST, and soaked for 2 min each time. The plate was centrifuged at 1000 rpm for 1 min, scanned on a two-color infrared laser imaging system (Odyssey® CLX) to read the signal. Relative signal = 800-channel signal values/700-channel signal values. […]
(§1) IC50 values were calculated using Graphpad 5 software.

[2] = system: H358 cells; experiment: Inhibition of 3D cell proliferation (3D CellTiter-Glo); type: cell-based
Procedure: H358 cells were seeded in a T75 culture flask, and cultured in a RPMI 1640 medium containing 10% FBS for 2 days for subsequent experiments in which the cells would be cultured or seeded on a 384-well plate.
On day 1, the cells were seeded on the 384-well plate, with 40 µL of medium added per well and serially diluted compounds or DMSO added per well, and an additional well without seeded cells but with medium was set up as a blank control. After culture at 37°C, 5% CO2 for 7 days, the plate was added with 3D CellTiter-Glo reagent (Promega, Cat. No. G9683) on day 8, shaken at 320 rpm for 20 min, and left at room temperature for 2 h. Luminescence signals were read on a multifunctional microplate reader. Cell viability inhibition rate was calculated as: [formula]
as §1

[3] = biological target: T1, CYP3A4 (Homo sapiens, UniProt P08684); experiment: Cytochrome P450 inhibition test (CYP3A4, substrates midazolam and testosterone); type: in vitro ADME; details: compound 10 µM, human liver microsomes
T1 construct: A human liver microsome solution at a concentration of 0.2 mg/mL was prepared; from tissue; host or cells: human liver microsomes
Procedure: The inhibitory potential of compounds on cytochrome P450 (CYP450) subtype CYP3A4 (two substrates of midazolam and testosterone) was detected. First, the compound to be tested was prepared into a 10 mM stock solution in DMSO solvent, and the CYP3A4 inhibitor ketoconazole was prepared as 10 mM, 2.5 mM, and 2.5 mM stock solutions in DMSO solvent. The test compound and ketoconazole were diluted to 400-fold final concentration (compound: 10 µM, ketoconazole: 2.5 µM) with acetonitrile.
NADPH cofactor (10 mL of potassium phosphate buffer added with 66.7 mg NADPH) at 4-fold final concentration and substrates were prepared with potassium phosphate buffer (0.1 M, pH = 7.4), with CYP3A4 substrate midazolam at a final concentration of 320 µM and CYP3A4 substrate testosterone at a final concentration of 20 µM.
A human liver microsome solution at a concentration of 0.2 mg/mL was prepared with potassium phosphate buffer on ice. A solution of the compound to be tested and a control inhibitor (control compound) solution at 2-fold final concentration were prepared with the human liver microsome solution on ice. The test wells were added with 30 mL of the test compound solution and the control inhibitor solution respectively, and then added with 15 mL of the substrate for duplication. […]

[4] = Plasma protein binding rate by equilibrium dialysis; type: in vitro ADME; details: compound 1 µM, equilibrium dialysis 37°C
Procedure: Plasma protein binding rate of compounds was detected by equilibrium dialysis (HTDialysis, HTD 96b). The compound was prepared into a […] stock solution with DMSO, and then 25-fold diluted with 0.05 M sodium phosphate buffer as a working solution. A blank 96-well plate was taken and preloaded with 380 µL of plasma per well. The plasma was then added with the working solution at 20 µL/well and mixed well, with the compound at a final concentration of 1 µM, containing 0.2% DMSO per well.
100 µL of 0.05 M sodium phosphate buffer was added to the receiver-side of each dialysis chamber (HTD 96b), and then 100 µL of plasma containing the compound was added to the supply-side. The dialysis chamber was covered with a plastic lid, shaken, and incubated at 37°C for 5 h.
After incubation, 25 µL of sample was taken from each of the supply-side and the receiver-side of the dialysis chamber, and placed in the blank 96-well plate. An equal volume of plasma was added to each of the supply-side samples while an equal volume of 0.05 M sodium phosphate buffer was added to each of the receiver-side samples, and mixed well. […]
Plasma protein binding rate and free fraction were calculated using the following formulas: % binding rate = 100 × ([supply-side concentration]5h - [receiver-side concentration]5h)/[supply-side concentration]5h. % free fraction = 100 - % binding rate

[5] = system: Mia Paca-2 pancreatic cancer; experiment: In vivo efficacy test on Mia Paca-2 pancreatic cancer; parameters: species or system mice; details: for Average tumor weight at the end of the treatment / Tumor weight inhibition rate (relative to the vehicle group): BID
Procedure: (§2) After one week of adaptive feeding of mice, Mia Paca-2 cells in a logarithmic phase were resuspended in serum-free DMEM, and then mixed with Matrigel in a ratio of 1: 1. 1 × 10^7 Mia Paca-2 cells were inoculated subcutaneously at the right flank at 100 µL per mouse, and tumor growth was observed regularly. When the tumor grew to an average volume of 150 to 200 mm^3, the mice were randomly divided into a model group and an administration group (single drug, in combination with trametinib) based on the tumor size and body weight. The tumor size and body weight were measured and recorded before and during the administration. After the treatment, the tumor size in the model group was compared with that in the administration group to determine the efficacy.

[6] = system: LOVO colorectal cancer; experiment: In vivo efficacy test on LOVO colorectal cancer; parameters: species or system mice; details: 50 mg/kg, BID
Procedure: as §2, with “LOVO” for “Mia Paca-2”, “F12K, 5” for “DMEM, and then mixed with Matrigel in a ratio of 1: 1. 1”, “10^6 LOVO” for “10^7 Mia Paca-2”, “group” for “group (single drug, in combination with trametinib)”

T1 sequence (P08684 whole entry): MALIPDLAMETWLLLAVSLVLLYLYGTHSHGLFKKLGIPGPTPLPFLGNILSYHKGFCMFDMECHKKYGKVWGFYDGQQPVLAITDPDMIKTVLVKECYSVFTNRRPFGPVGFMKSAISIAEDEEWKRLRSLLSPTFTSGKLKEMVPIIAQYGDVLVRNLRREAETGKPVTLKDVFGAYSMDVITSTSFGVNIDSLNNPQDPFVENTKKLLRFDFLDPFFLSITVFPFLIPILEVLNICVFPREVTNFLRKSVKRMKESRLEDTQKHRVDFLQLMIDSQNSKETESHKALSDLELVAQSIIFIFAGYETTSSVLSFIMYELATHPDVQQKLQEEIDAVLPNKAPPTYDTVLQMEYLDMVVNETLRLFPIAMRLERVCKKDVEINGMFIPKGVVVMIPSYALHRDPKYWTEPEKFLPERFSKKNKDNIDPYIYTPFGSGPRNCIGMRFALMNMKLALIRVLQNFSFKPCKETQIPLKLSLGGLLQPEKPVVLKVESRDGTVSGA

Cc1nc(N[C@H](C)c2cccc(S(F)(F)(F)(F)F)c2)c2cn(C3(CF)CC3)c(=O)cc2n1 [Compound of formula I, (R)-6-(1-(fluoromethyl)cyclopropyl)-2-methyl-4-((1-(3-(pentafluorosulfanyl)phenyl)ethyl)amino)pyrido[4,3-d]pyrimidin-7(6H)-one]
IC50 [1]: 0.056 µM
IC50 ([2]; Homo sapiens, NCI-H358, 168 h, 3D cell proliferation in H358 cells, 7 days culture, 3D CellTiter-Glo): 0.0115 µM
inhibitory effect on the 3D proliferation of H358 cells ([2]; summary statement): strong inhibitory effect
inhibition at 5 min, 10 µM ([3]; pH 7.4, probe midazolam, substrate midazolam, read-out: CYP inhibition rate (%) CYP3A4 (midazolam)): 0%
inhibition at 5 min, 10 µM ([3]; pH 7.4, probe testosterone, substrate testosterone, read-out: CYP inhibition rate (%) CYP3A4 (testosterone)): 0%
fraction unbound at 5 h, 1 µM ([4]; human plasma, read-out: free fraction in plasma, Human (%)): 0.017
fraction unbound at 5 h, 1 µM ([4]; mouse plasma, read-out: free fraction in plasma, Mouse (%)): 0.011
Average tumor weight at the end of the treatment ([5]; Mia Paca-2, 25 mg/kg): 0.35 g
Tumor weight inhibition rate (relative to the vehicle group) ([5]; Mia Paca-2, 25 mg/kg): 70%
Average tumor weight at the end of the treatment ([5]; Mia Paca-2, 50 mg/kg): 0.27 g
Tumor weight inhibition rate (relative to the vehicle group) ([5]; Mia Paca-2, 50 mg/kg): 76%
inhibitory effect on Mia Paca-2 tumor growth ([5]; alone (single drug)): significant inhibitory effect
efficacy of combined use compared with single use ([5]; combination with trametinib vs single use, Mia Paca-2): more effective than the single use
inhibitory effect on Mia Paca-2 tumor growth ([5]; in combination with trametinib): significant inhibitory effect
At the end of treatment Average tumor weight [6]: 0.75 g
Tumor weight inhibition rate (relative to the vehicle group) [6]: 46%
